# Assay results from US11214594B2, “Antimicrobial peptide having synergistic antibacterial effect with antibiotics on multidrug resistant bacteria, and use thereof” (priority 2016, dated 2022).
# Where two headings read alike, the source gives them in different places. Where a SMILES comes first, the peptide text is derived from it. [ ]: non-standard residue; d: D form.
# Assays:
# E. coli [1] = test: MIC of antibiotic during combined treatment with antimicrobial peptide; type: cell-based, Escherichia coli; settings: E. coli
# Procedure, shortened: (§1)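 First, antibiotic solution is diluted with MH medium; next, the dilution is dispensed into wells containing peptide; finally, the orientation is swapped and MIC of each mixture determined.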
# MDRST 8009 = type: cell-based, Salmonella typhimurium; settings: agent alone
# Procedure, shortened: (§2)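 Peptides were serially diluted twofold in Mueller-Hinton medium and combined 1:1 with bacterial suspensions prepared at 2×10^6 CFU. Readout was the minimal inhibitory concentration, i.e. the lowest concentration with no growth.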
# B. subtilis = test: microbe, parasite or virus in culture; type: cell-based, Bacillus subtilis
# Procedure, shortened: as §2
# P. aeruginosa = test: microbe, parasite or virus in culture; type: cell-based, Pseudomonas aeruginosa
# Procedure, shortened: as §2
# MDREC 1229 [2] = test: microbe, parasite or virus in culture; type: cell-based, Escherichia coli
# Procedure, shortened: as §2
# E. coli [3] = test: microbe, parasite or virus in culture; type: cell-based, Escherichia coli; settings: 16 h
# Procedure, shortened: as §2
# A. baumannii = test: MIC of antibiotic during combined treatment with antimicrobial peptide; type: cell-based, Acinetobacter baumannii; settings: for Antibiotic MIC, Erythromycin / Antibiotic MIC, Linezolid / Antibiotic MIC, Vancomycin: A. baumannii
# Procedure, shortened: as §1
# S. epidermidis = test: microbe, parasite or virus in culture; type: cell-based, Staphylococcus epidermidis
# Procedure, shortened: as §2
# MDREC 1229 [4] = type: cell-based, Escherichia coli
# Procedure, shortened: (§3)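 Broth microdilution in MH medium; strains were diluted to 2×10^6 CFU per ml before plating. Peptide was serially diluted stepwise at 2:1 starting from its MIC, and MH-diluted antibiotic was then added to determine MIC. The reversed arrangement was also tested.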
# E. coli [5] = type: cell-based, Escherichia coli; settings: E. coli
# Procedure, shortened: as §3
# [6] = combined with peptide at 1 μg/ml
# [7] = combined with peptide at 2 μg/ml
# [8] = combined with peptide at 4 μg/ml
# [9] = combined with peptide at 6 μg/ml
# [10] = combined with peptide at 8 μg/ml
# [11] = combined with peptide at 16 μg/ml
# [12] = combined with peptide at 32 μg/ml
# [13] = combined with peptide at 64 μg/ml
smiles,measurement,setting,value
"CC[C@H](C)[C@H](NC(=O)[C@H](CCCCN)NC(=O)[C@H](Cc1c[nH]c2ccccc12)NC(=O)[C@@H](N)CCCNC(=N)N)C(=O)N[C@@H](Cc1ccccc1)C(=O)N[C@@H](CCCCN)C(=O)N[C@@H](CCCCN)C(=O)N[C@H](C(=O)N[C@H](CC(C)C)C(=O)N[C@@H](CCCCN)C(=O)N[C@@H](CC(C)C)C(=O)N[C@@H](CC(C)C)C(=O)N[C@@H](Cc1c[nH]cn1)C(=O)N[C@@H](CCC(=O)O)C(=O)N[C@@H](Cc1ccccc1)C(=O)N[C@@H](CCCCN)C(=O)N[C@@H](CCCCN)C(=O)N[C@@H](Cc1ccccc1)C(N)=O)[C@@H](C)CC [PapMA-23, RWK IFK KIl KLL HEF KKF-NH2] (H-RWKIFKKI[dL]KLLHEFKKF-NH2; N-terminus assumed)","Antibiotic MIC, Linezolid",E. coli [1]; linezolid combined with peptide at 6 μg/ml,32 µg/mL
same,"Antibiotic MIC, Linezolid",E. coli [1]; linezolid combined with peptide at 8 μg/ml,16 µg/mL
same,"Antibiotic MIC, Linezolid",E. coli [1]; linezolid combined with peptide at 16 μg/ml,16 µg/mL
same,"Antibiotic MIC, Linezolid",E. coli [1]; linezolid combined with peptide at 32 μg/ml,0 µg/mL
same,"Antibiotic MIC, Linezolid",E. coli [1]; linezolid combined with peptide at 64 μg/ml,0 µg/mL
same,"Antibiotic MIC, Vancomycin",E. coli [1]; vancomycin combined with peptide at 1 μg/ml,>128 µg/mL
same,"Antibiotic MIC, Vancomycin",E. coli [1]; vancomycin combined with peptide at 2 μg/ml,>128 µg/mL
same,"Antibiotic MIC, Vancomycin",E. coli [1]; vancomycin combined with peptide at 4 μg/ml,>128 µg/mL
same,"Antibiotic MIC, Vancomycin",E. coli [1]; vancomycin combined with peptide at 6 μg/ml,64 µg/mL
same,"Antibiotic MIC, Vancomycin",E. coli [1]; vancomycin combined with peptide at 8 μg/ml,16 µg/mL
same,"Antibiotic MIC, Vancomycin",E. coli [1]; vancomycin combined with peptide at 16 μg/ml,8 µg/mL
same,"Antibiotic MIC, Vancomycin",E. coli [1]; vancomycin combined with peptide at 32 μg/ml,0 µg/mL
same,"Antibiotic MIC, Vancomycin",E. coli [1]; vancomycin combined with peptide at 64 μg/ml,0 µg/mL
same,Minimal inhibitory concentration MIC,MDRST 8009,32 µg/mL
same,Minimal inhibitory concentration MIC,B. subtilis,>128 µg/mL
same,Minimal inhibitory concentration MIC,P. aeruginosa,64 µg/mL
same,Minimal inhibitory concentration MIC,MDREC 1229 [2],32 µg/mL
same,"Peptide MIC, peptide alone",MDREC 1229 [2],32 µg/mL
same,Minimal inhibitory concentration MIC,E. coli [3],32 µg/mL
same,Synergistic effect of antibacterial activity with existing antibiotics compared with PapMA-1,A. baumannii; A. baumannii and MDRAB 12035,level similar to that of PapMA-1 peptide
same,"Antibiotic MIC, Erythromycin",A. baumannii; [6],32 µg/mL
same,"Antibiotic MIC, Linezolid",A. baumannii; [6],>128 µg/mL
same,"Antibiotic MIC, Vancomycin",A. baumannii; [6],>128 µg/mL
same,"Antibiotic MIC, Erythromycin",A. baumannii; [7],32 µg/mL
same,"Antibiotic MIC, Linezolid",A. baumannii; [7],>128 µg/mL
same,"Antibiotic MIC, Vancomycin",A. baumannii; [7],>128 µg/mL
same,"Antibiotic MIC, Erythromycin",A. baumannii; [8],8 µg/mL
same,"Antibiotic MIC, Linezolid",A. baumannii; [8],64 µg/mL
same,"Antibiotic MIC, Vancomycin",A. baumannii; [8],64 µg/mL
same,"Antibiotic MIC, Erythromycin",A. baumannii; [9],4 µg/mL
same,"Antibiotic MIC, Linezolid",A. baumannii; [9],16 µg/mL
same,"Antibiotic MIC, Vancomycin",A. baumannii; [9],32 µg/mL
same,"Antibiotic MIC, Erythromycin",A. baumannii; [10],0.5 µg/mL
same,"Antibiotic MIC, Linezolid",A. baumannii; [10],4 µg/mL
same,"Antibiotic MIC, Vancomycin",A. baumannii; [10],8 µg/mL
same,"Antibiotic MIC, Erythromycin",A. baumannii; [11],0.25 µg/mL
same,"Antibiotic MIC, Linezolid",A. baumannii; [11],2 µg/mL
same,"Antibiotic MIC, Vancomycin",A. baumannii; [11],4 µg/mL
same,"Antibiotic MIC, Erythromycin",A. baumannii; [12],0 µg/mL
same,"Antibiotic MIC, Linezolid",A. baumannii; [12],0 µg/mL
same,"Antibiotic MIC, Vancomycin",A. baumannii; [12],0 µg/mL
same,"Antibiotic MIC, Erythromycin",A. baumannii; [13],0 µg/mL
same,"Antibiotic MIC, Linezolid",A. baumannii; [13],0 µg/mL
same,"Antibiotic MIC, Vancomycin",A. baumannii; [13],0 µg/mL
same,Minimal inhibitory concentration MIC,S. epidermidis,>128 µg/mL
same,Peptide MIC during treatment with antibiotic,MDREC 1229 [4]; erythromycin 32 μg/ml (Conc./MIC 1/8),4 µg/mL
same,Peptide MIC during treatment with antibiotic,MDREC 1229 [4]; erythromycin 64 μg/ml (Conc./MIC 1/4),2 µg/mL
same,Peptide MIC during treatment with antibiotic,MDREC 1229 [4]; erythromycin […] (Conc./MIC 1),0 µg/mL
same,Peptide MIC during treatment with antibiotic,MDREC 1229 [4]; erythromycin […] (Conc./MIC 1/2),1 µg/mL
same,Peptide MIC during treatment with antibiotic,MDREC 1229 [4]; linezolid 64 μg/ml (Conc./MIC 1/8),4 µg/mL
same,Peptide MIC during treatment with antibiotic,MDREC 1229 [4]; linezolid 512 μg/ml (Conc./MIC 1),0 µg/mL
same,Peptide MIC during treatment with antibiotic,MDREC 1229 [4]; linezolid […] (Conc./MIC 1/2),1 µg/mL
same,Peptide MIC during treatment with antibiotic,MDREC 1229 [4]; linezolid […] (Conc./MIC 1/4),2 µg/mL
same,Peptide MIC during treatment with antibiotic,MDREC 1229 [4]; vancomycin 512 μg/ml (Conc./MIC 1/2),2 µg/mL
same,Peptide MIC during treatment with antibiotic,MDREC 1229 [4]; vancomycin 1024 μg/ml (Conc./MIC 1),1 µg/mL
same,Peptide MIC during treatment with antibiotic,MDREC 1229 [4]; vancomycin […] (Conc./MIC 1/4),4 µg/mL
same,Peptide MIC during treatment with antibiotic,MDREC 1229 [4]; vancomycin […] (Conc./MIC 1/8),8 µg/mL
same,Peptide MIC,E. coli [5]; with Erythromycin […] (Conc./MIC 1),0 µg/mL
same,Peptide MIC,E. coli [5]; with Linezolid […] (Conc./MIC 1),0 µg/mL
same,Peptide MIC,E. coli [5]; with Vancomycin 1024 μg/ml (Conc./MIC 1),0 µg/mL
